Our source for the Emax, EC50 and chromatographic logD values is article PMC9234961 (Journal of Medicinal Chemistry, 2022).

One data set has as its target OPRD1 (Homo sapiens, UniProt P41143). Put plainly: SAFETYScan GPCR cAMP, Agonist. The class given is cell-based. The source says: (§1) Supplement jm1c02175_si_002.xlsx, sheet "SAFETYScan" | column: RC50 (uM); Max Response
The target of a further data set is T1, CNR2 (Homo sapiens, UniProt P34972).
T1 construct: expressed in transfected cells
Briefly: SAFETYScan GPCR cAMP, Agonist. The class given is cell-based.
From the text: as §1

The next data set deals with T2, ADRB2 (Homo sapiens, UniProt P07550).
T2 construct: expressed in transfected cells
T2 sequence (P07550 whole entry): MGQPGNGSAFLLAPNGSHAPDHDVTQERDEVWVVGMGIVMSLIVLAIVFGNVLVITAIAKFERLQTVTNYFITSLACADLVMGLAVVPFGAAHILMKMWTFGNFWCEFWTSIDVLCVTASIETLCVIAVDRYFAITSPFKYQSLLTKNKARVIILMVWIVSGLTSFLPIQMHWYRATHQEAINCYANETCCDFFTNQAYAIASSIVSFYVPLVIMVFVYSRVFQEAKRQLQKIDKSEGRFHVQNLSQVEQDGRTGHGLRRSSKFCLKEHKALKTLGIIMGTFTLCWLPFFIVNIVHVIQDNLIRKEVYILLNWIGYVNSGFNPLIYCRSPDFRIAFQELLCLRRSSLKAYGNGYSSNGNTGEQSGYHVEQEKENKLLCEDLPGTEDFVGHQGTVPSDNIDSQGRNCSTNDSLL
Briefly: SAFETYScan GPCR cAMP, Agonist. The class given is cell-based.
From the text: as §1

The target in another data set is T3, DRD1 (Homo sapiens, UniProt P21728).
T3 construct: expressed in transfected cells
T3 sequence (P21728 whole entry): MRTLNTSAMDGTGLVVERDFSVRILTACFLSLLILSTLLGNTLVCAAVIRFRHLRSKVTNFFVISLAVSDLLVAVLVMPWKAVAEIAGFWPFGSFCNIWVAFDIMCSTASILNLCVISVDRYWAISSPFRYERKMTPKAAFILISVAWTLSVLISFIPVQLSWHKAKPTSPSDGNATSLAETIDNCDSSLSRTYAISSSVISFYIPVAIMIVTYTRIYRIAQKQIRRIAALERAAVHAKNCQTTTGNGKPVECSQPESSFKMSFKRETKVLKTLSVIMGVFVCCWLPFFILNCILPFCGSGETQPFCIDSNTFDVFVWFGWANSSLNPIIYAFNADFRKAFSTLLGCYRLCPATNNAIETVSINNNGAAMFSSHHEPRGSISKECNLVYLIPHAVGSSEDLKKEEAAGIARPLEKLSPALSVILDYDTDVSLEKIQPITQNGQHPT
Briefly: SAFETYScan GPCR cAMP, Agonist. The class given is cell-based.
From the text: as §1

Data set [1] can be described thus: logD7.4 assay (Chrom log D method). It counts as physicochemical. The conditions noted are these: reversed-phase HPLC on Phenomenex Luna C8 column, pH 7.4, read-out: Measured logD7.4. The gist of the method: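 Samples at 1mM in 10% DMSO/90% Trizma buffer (100mM Trizma in 75/25 methanol/water) injected onto a C8 column at 30°C under gradient elution at 2 mL/min. Retention calibrated against calibration and validation standards.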

One may read the EC50 as the concentration giving half of the maximal effect.

OPRD1, sequence (P41143 whole entry, species assumed): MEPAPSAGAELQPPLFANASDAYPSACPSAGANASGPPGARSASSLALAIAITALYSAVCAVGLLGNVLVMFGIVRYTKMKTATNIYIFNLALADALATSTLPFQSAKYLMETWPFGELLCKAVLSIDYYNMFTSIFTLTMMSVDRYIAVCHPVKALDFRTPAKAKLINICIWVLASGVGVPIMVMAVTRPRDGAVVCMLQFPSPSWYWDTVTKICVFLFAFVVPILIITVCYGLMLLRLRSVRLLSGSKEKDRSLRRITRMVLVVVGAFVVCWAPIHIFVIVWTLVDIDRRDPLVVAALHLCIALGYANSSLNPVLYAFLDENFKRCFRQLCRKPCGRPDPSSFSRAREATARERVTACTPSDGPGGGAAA
T1 sequence (P34972 whole entry): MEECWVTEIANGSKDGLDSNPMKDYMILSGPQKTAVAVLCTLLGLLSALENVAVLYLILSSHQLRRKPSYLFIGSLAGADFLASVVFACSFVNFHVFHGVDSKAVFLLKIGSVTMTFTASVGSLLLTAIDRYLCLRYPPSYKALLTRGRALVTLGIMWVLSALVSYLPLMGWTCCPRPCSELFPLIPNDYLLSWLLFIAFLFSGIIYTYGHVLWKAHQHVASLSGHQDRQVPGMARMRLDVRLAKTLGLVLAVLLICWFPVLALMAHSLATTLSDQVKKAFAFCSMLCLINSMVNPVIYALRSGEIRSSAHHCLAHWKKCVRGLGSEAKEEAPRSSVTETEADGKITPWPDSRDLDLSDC

`C[C@H]1C[C@@H](O)CN(c2ncc(Cl)c(Nc3ccc4c(c3)c3c(c(=O)n4C)OCC(F)(F)[C@H](C4CC4)N3)n2)C1` [12a CCT373566, (S)-10-((5-Chloro-2-((3R,5S)-3-hydroxy-5-methylpiperidin-1-yl)pyrimidin-4-yl)amino)-2-cyclopropyl-3,3-difluoro-7-methyl-1,2,3,4-tetrahydro-[1,4]oxazepino[2,3-c]quinolin-6(7H)-one]: the Emax stood at 60.3% on OPRD1 (read-out: Max Response), 0% on CNR2 (read-out: Max Response), 0% on ADRB2 (read-out: Max Response) and 0% on DRD1 (read-out: Max Response). Moreover, the EC50 at OPRD1 (read-out: RC50 (EC50)) was 4.95 µM; on CNR2 (read-out: RC50 (EC50)) it was > 10 µM; on ADRB2 (read-out: RC50 (EC50)), > 10 µM; at DRD1 (read-out: RC50 (EC50)), > 10 µM. Besides, in data set [1], the chromatographic logD was 3.
